According to US11992499B2, “Quinoline derivatives for use in the treatment of inflammation diseases” (ABIVAX, priority 2018, dated 2024):

Assays:
[1] = system: STAM model of non-alcoholic steatohepatitis; test: STAM model of NASH: Alpha-SMA immunostaining; assay type: in vivo, mice; conditions: for Alpha-SMA-positive area (mean ± SD): n = 8
Experimental: NASH was induced in 48 male mice by a single subcutaneous injection of 200 μg streptozotocin (STZ, Sigma-Aldrich, USA) solution 2 days after birth and feeding with high fat diet (HFD, 57 kcal % fat, Cat #HFD32, CLEA Japan, Inc., Japan) after 4 weeks of age. Compound A was administered at 3 dose levels of 10, 20 and 40 mg/kg once daily from 6 to 9 weeks of age. Compound B was administered at a dose of 40 mg/kg once daily from 6 to 9 weeks of age. Telmisartan was administered at a dose of 10 mg/kg once daily from 6 to 9 weeks of age. […] (Table 9 herein after)

[2] = system: Sugen hypoxia model; test: Rat Sugen hypoxia model of pulmonary arterial hypertension: mean pulmonary pressure; assay type: in vivo; conditions: for Effect on mean pulmonary arterial pressure: rat Sugen hypoxia model, 70 mg/kg; for Mean Pulmonary Pressure: SuHx
Experimental: Animals from Groups 2 to 5 (see Table 10) receive a single subcutaneous injection of sugen (20 mg/kg in 2 mL/kg volume) solution (10 mg/mL) on Day 0 and returned to their cages. Animals from Group 1 receive one subcutaneous injection of DMSO at 2 mL/kg (vehicle for sugen) on Day 0 and returned to their respective cages.
Groups 2-5 are placed in cages for which the controlled air is adjusted to receive a FiO2 equivalent to 0.10 (10%) using a mixture of nitrogen and ambient air controlled by the ventilated cage system. They are kept under these hypoxic conditions for 21 days. While in hypoxia, cages are cleaned and changed once a week, exposing the animals to ambient oxygen levels for less than 10 minutes. They are exposed to ambient oxygen levels from Day 22 to Day 56. Group 1 animals remain in cages exposed to ambient oxygen (normoxic) levels for 56 days. The animals are observed on a daily basis for any changes in their behaviour and general health status.
Treatment with the compound A, sildenafil or vehicle is administered as of Day 22 (Groups 2-5) as scheduled and described in Table 10. The Groups 2-4 receives a single dose per day. The reference group 5 receives sildenafil twice a day. Food and water are given ad libitum. Daily observation of the behaviour and general health status of the animals is done. Weekly body weight is taken.
Surgical Instrumentation and Measurement of Hemodynamic and Functional Parameters in Efficacy Study Animals • 1. On the selected day of surgery, rats are anaesthetized with a mixture of 2 to 2.5% isoflurane USP (Abbot Laboratories, Montreal, Canada) in oxygen, and placed on a heating pad to maintain body temperature. • 2. Rats are tracheotomized and immediately ventilated by means of a positive-pressure rodent respirator set at ≈10 ml/kg body weight at a frequency of 65-70 strokes/min. • 3. Lead II ECG contact electrodes is placed on the rat to continuously monitor the ECG during the surgical procedure. • 4. A cannula connected to a pressure transducer is inserted into the left femoral artery to measure the arterial blood pressure. • 5. A cannula connected to a pressure transducer is inserted into the right atria through the right jugular vein to measure the right atria pressure. • 6. The heart is exposed through a sternotomy and a 20GA 1.16 in Insyte is introduced into the right ventricle and rapidly hooked up to a saline filled PE-50 catheter connected to a transducer. • 7. Following a few seconds of right ventricular pressure recording, the Insyte is further advanced into the pulmonary artery to allow PAP recording for an additional 60 seconds. • 8. Hemodynamic parameters are recorded continuously for the duration of the procedure or until loss of PAP signal. • 9. Following hemodynamic monitoring, chest cavity is further opened to expose the lung. The muscle over the trachea is dissected away to remove the lungs and heart. Harvested tissue is rinsed with PBS to remove any excess of blood before to be weighed. • 10. For the histology and casting of the lungs, the process is as follows; 1) eight (8) rats per group is reserved to assess the histology of the left lung and is therefore be treated as described in point 12 of this section 8.2; 2) Two (2) rats per group serve to enable quantitative characterization of the three-dimensional vascular structure of the left lung and therefore is treated as described in section 8.3 for casting of the left lung. • 11. For histology, the left lobe is inflated using a 10 mL syringe filled with fixative (10% NBF) with attached blunt tip needle (23 g). Needle tip is inserted into the trachea, held in place with tied suture while another syringe is tied to the pulmonary artery. The lung is inflated gently at physiological pressure (20-25 mmHg) until all lobes are fully, uniformly, and consistently expanded (not allowing fixative to ooze through lung surface). This provides optimal vascular and airway expansion without causing excessive tissue disruption. […]

SMILES | Alpha-SMA in the liver ([1]; summary statement, dose not stated) | Effect on mean pulmonary arterial pressure [2] | Alpha-SMA-positive area (mean ± SD) ([1]; 10 mg/kg PO QD, 6-9 wks of age (Compound A low, Telmisartan groups)) [%] | Alpha-SMA-positive area (mean ± SD) ([1]; 20 mg/kg PO QD, 6-9 wks of age (Compound A middle group)) [%] | Alpha-SMA-positive area compared with the Vehicle group ([1]; 40 mg/kg PO QD (Compound A high group)) | Alpha-SMA-positive area (mean ± SD) ([1]; 40 mg/kg PO QD, 6-9 wks of age (Compound A high, Compound B groups)) [%] | Mean Pulmonary Pressure ([2]; female rats, 70 mg/kg QD gavage Day 22 to Day 56) [mmHg] | Mean Pulmonary Pressure ([2]; female rats, 120 mg/kg QD gavage Day 22 to Day 56) [mmHg] | Mean Pulmonary Pressure ([2]; male rats, 70 mg/kg QD gavage Day 22 to Day 56) [mmHg] | Mean Pulmonary Pressure ([2]; male rats, 120 mg/kg QD gavage Day 22 to Day 56) [mmHg]
FC(F)(F)Oc1ccc(Nc2ccc3cccc(Cl)c3n2)cc1 [8-Chloro-N-(4-(trifluoromethoxy)phenyl)quinolin-2-amine] | decreases | tendency to decrease | – | – | – | – | – | – | – | –
FC(F)(F)Oc1ccc(Nc2ccc3cccc(Cl)c3n2)cc1 [Compound A, 8-Chloro-N-(4-(trifluoromethoxy)phenyl)quinolin-2-amine] | – | tendency to decrease | 1.39 ± 1.25 | 0.91 ± 0.55 | tended to decrease | 0.85 ± 0.41 | 24.1 | 34.4 | 26.8 | 33.6
